Data from patent US10508086B2 (CANCER RESEARCH TECHNOLOGY LIMITED, priority 2014, dated 2019).

Experiments:
[1] = molecular target: Human High specific Activity PARP1 (Homo sapiens (Human), UniProt P09874); test: PARP1 in vitro selectivity assay (histone PARylation, luminescence); format: biochemical; conditions: read-out: PARP1 Biochem IC50
Description: PARP1 In vitro selectivity assays were conducted as a 10 ul reaction volume in a NUNC Maxisorp 384-well assay plate pre-coated in-house with Histones. 5 ul of Human High specific Activity PARP1 (Trevigen: 4668-100-01) was used at a final reaction concentration of 0.02 units/ml in 1×PARP Buffer (Trevigen: 4671-096-02) with 5 ul of 1×PARP cocktail, which is a mixture of 10×PARP Cocktail (Trevigen: 4671-096-03), 10× Activate DNA (Trevigen: 4671-096-06) and 20×PARP Buffer (as above). The reaction was incubated at room temperature for 60 minutes to allow histones on the coated plate to become PARylated. The wells were then washed with PBS/0.1% Triton X100. PARP1 activity was then detected by measuring the extent of PARylation. Firstly, 10 ul of Streptavidin-HRP (Trevigen: 4800-30-06), diluted 1 in 250 in 1×PARG Assay Buffer (Trevigen: 4680-096-02), was added to each well and incubated at room temperature for 60 minutes. Secondly, following another wash with PBS/0.1% Triton X100, Peroxy Glow Reagents A and B (Trevigen: 4675-096-01 and 4675-096-02) were mixed in equal quantities immediately before use and 100 ul was added to each well. Luminescence signal was then measured immediately.

Human Full Length ARH3 = Human Full Length ARH3 (Homo sapiens (Human), UniProt Q9NX46); test: ARH3 in vitro selectivity assay (TR-FRET); format: biochemical; conditions: read-out: ARH3 Biochem IC50
Description: ARH3 In vitro selectivity assays were conducted in a total volume of 15 ul in a standard 384 well format. 5 ul of Human Full Length ARH3 (Enzo Life Sciences: ALX-201-292), used at a final reaction concentration of 17.5 nM, was added to 5 ul of Ribosylated PARP substrate (also produced internally by Astra Zeneca) at final reaction concentration of 4.5 nM in assay buffer (50 mM Tris pH7.4, 0.1 mg/ml BSA, 3 mM EDTA, 0.4 mM EGTA, 1 mM DTT, 0.01% Tween 20, 50 mM KCl). The reaction was incubated at room temperature for 30 minutes and then 5 ul detection reagent was added. Detection Reagent consists of 42 nM MAb Anti-6HIS XL665 (CisBio: 61HISXLB) and 2.25 nM Streptavidin Europium Cryptate (CisBio: 610SAKLB), both at 3× working stock concentrations (final concentrations of 14 nM and 0.75 nM respectively), in a detection buffer of 50 mM Tris pH7.4, BSA at 0.1 mg/ml and KF at 100 mM. Following incubation at room temperature for 60 minutes in the dark, TR-FRET signal was measured at Ex 340 and Em 665 and Em 620. A ratio was calculated as Em665/EM620×104 for each well and used to calculate percent inhibition for test compounds.

Human Full Length PARG = Human Full Length PARG (Homo sapiens (Human), UniProt Q86W56); test: PARG in vitro enzyme assay (TR-FRET); format: biochemical; conditions: read-out: PARG_EC50_ENZYME
Summary of the method: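 Full-length human PARG ([…]) incubated with ribosylated PARP substrate (4.5 nM) for 10 min at room temperature in Tris pH 7.4 buffer with EDTA, EGTA, DTT, KCl. Detection by TR-FRET using anti-6HIS XL665 (14 nM final) and streptavidin europium cryptate (0.75 nM final) after 60 min; Em665/Em620 ratio converted to percent inhibition.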

PARG in HeLa cell line = PARG in HeLa cell line (Homo sapiens (Human), UniProt Q86W56); test: PARG cell assay (nuclear PAR chains after MMS, immunofluorescence); format: cell-based; conditions: HeLa cells, MMS 50 μg/mL; read-out: PARG Cell IC50 Geomean
Summary of the method: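 HeLa cells pre-dosed 1 h with compound (10-point dose response), then MMS 50 μg/mL for a further hour at 37 °C. Fixed cells immunostained with anti-PAR antibody plus Alexa Fluor 488 secondary and Hoechst. High-content imaging quantified nuclear PAR fluorescence intensity; inhibition maintains PAR chains.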

Sequence of Human Full Length ARH3 (Q9NX46 whole entry): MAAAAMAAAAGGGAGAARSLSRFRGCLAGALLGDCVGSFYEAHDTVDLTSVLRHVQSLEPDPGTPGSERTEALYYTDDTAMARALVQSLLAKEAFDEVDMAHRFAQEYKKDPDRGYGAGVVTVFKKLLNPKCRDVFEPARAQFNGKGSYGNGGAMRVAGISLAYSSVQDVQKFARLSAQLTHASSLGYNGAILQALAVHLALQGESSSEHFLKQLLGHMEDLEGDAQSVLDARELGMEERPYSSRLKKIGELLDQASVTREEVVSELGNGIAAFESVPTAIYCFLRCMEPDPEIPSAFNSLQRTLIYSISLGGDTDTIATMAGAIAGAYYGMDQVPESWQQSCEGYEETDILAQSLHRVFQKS
Sequence of Human High specific Activity PARP1 (P09874 whole entry): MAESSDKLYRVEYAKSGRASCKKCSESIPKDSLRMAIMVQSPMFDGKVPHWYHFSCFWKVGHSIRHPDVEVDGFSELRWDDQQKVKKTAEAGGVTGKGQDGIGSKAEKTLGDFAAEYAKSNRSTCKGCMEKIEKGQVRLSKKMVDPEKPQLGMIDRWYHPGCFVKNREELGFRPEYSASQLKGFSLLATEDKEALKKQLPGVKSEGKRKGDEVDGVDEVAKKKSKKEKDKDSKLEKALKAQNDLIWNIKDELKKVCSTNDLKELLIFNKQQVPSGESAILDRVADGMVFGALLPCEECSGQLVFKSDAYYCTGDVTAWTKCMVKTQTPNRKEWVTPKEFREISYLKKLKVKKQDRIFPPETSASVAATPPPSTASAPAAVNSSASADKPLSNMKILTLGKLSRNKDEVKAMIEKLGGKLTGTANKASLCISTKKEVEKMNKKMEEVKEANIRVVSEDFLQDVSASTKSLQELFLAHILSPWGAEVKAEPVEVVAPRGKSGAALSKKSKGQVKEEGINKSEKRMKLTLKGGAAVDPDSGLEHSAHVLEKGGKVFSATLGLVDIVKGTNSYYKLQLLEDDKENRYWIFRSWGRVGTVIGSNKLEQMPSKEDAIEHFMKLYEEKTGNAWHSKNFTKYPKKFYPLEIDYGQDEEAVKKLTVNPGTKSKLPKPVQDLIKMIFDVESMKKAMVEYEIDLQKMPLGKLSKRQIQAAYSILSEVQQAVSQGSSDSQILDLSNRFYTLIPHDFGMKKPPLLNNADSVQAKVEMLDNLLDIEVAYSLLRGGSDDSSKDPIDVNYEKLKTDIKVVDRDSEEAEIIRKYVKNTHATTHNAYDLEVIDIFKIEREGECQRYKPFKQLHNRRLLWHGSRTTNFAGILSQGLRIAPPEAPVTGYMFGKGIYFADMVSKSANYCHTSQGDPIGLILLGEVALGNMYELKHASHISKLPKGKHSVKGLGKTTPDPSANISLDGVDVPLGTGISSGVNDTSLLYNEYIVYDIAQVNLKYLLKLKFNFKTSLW
Sequence of PARG in HeLa cell line (Q86W56 whole entry): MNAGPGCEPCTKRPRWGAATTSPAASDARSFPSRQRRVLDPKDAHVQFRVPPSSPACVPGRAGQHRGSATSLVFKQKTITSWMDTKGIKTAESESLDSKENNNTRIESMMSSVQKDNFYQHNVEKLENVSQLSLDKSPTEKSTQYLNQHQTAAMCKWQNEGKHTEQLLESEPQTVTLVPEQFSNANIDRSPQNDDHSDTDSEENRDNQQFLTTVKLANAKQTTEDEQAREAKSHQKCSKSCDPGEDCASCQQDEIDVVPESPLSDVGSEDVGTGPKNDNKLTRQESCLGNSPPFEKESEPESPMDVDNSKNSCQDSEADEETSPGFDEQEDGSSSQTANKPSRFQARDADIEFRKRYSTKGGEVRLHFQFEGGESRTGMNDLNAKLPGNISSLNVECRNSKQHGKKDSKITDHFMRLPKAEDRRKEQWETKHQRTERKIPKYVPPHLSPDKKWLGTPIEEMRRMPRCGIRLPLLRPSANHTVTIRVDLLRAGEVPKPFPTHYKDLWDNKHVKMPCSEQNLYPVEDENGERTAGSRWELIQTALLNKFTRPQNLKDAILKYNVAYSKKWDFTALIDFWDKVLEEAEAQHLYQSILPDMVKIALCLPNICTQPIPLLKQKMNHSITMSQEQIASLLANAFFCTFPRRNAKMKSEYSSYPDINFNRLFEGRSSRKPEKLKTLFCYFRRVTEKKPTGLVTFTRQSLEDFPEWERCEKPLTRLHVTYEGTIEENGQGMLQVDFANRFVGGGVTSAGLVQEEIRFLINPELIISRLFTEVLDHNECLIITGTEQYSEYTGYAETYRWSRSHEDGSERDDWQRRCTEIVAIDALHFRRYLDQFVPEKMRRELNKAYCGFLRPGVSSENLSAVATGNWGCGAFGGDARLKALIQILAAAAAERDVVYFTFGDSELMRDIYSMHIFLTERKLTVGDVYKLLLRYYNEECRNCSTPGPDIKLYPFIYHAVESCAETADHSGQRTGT
Sequence of Human Full Length PARG (Q86W56 whole entry): as above

CC1(NS(=O)(=O)c2ccc3c(c2)N(C(=O)CN2CCOC2=O)CC3)CC1 [Example 14, N-(1-Methylcyclopropyl)-1-[2-(2-oxooxazolidin-3-yl)acetyl]indoline-6-sulfonamide]
IC50 [1]: > 150000 nM | IC50 (Human Full Length ARH3): > 150000 nM | EC50 (Human Full Length PARG): 4280 nM

Cc1nnc(-n2c(=O)n(Cc3ccc(F)cc3)c3ccc(S(=O)(=O)NC4(C)CC4)cc32)s1 [Example 73]
IC50 (PARG in HeLa cell line): 107 nM | IC50 [1]: > 150000 nM | IC50 (Human Full Length ARH3): > 100000 nM | EC50 (Human Full Length PARG): 636 nM

Cn1c(=O)n(-c2nnc(C(F)F)s2)c2cc(S(=O)(=O)NC3(C)CC3)ccc21 [Example 79]
IC50 [1]: > 150000 nM | IC50 (Human Full Length ARH3): > 100000 nM | EC50 (Human Full Length PARG): 652 nM

Cc1nnc(-n2c(=O)n(CC3CC3)c3ccc(S(=O)(=O)NC4(C)CC4)cc32)s1 [Example 82]
IC50 (PARG in HeLa cell line): 193 nM | IC50 [1]: > 150000 nM | IC50 (Human Full Length ARH3): > 100000 nM | EC50 (Human Full Length PARG): 155 nM

Cc1ncc(Cn2c(=O)n(-c3nnc(C)s3)c3cc(S(=O)(=O)NC4(C)CC4)ccc32)s1 [Example 83]
IC50 (PARG in HeLa cell line): 127 nM | IC50 [1]: > 150000 nM | IC50 (Human Full Length ARH3): > 100000 nM | EC50 (Human Full Length PARG): 151 nM

Cc1nnc(-n2c(=O)n(Cc3sc(C)nc3C)c3ccc(S(=O)(=O)NC4(C)CC4)cc32)s1 [Example 87]
IC50 (PARG in HeLa cell line): 109 nM | IC50 [1]: > 150000 nM | IC50 (Human Full Length ARH3): 76700 nM | EC50 (Human Full Length PARG): 68 nM

Cc1nc(C)c(Cn2c(=O)n(-c3nnc(C(F)F)s3)c3cc(S(=O)(=O)NC4(C)CC4)ccc32)s1 [Example 88]
IC50 (PARG in HeLa cell line): 38 nM | IC50 [1]: > 150000 nM | IC50 (Human Full Length ARH3): > 100000 nM | EC50 (Human Full Length PARG): 53 nM

Cc1nc(C)c(Cn2c(=O)n(-c3ncns3)c3cc(S(=O)(=O)NC4(C)CC4)ccc32)s1 [Example 90]
IC50 (PARG in HeLa cell line): 63 nM | IC50 [1]: > 150000 nM | IC50 (Human Full Length ARH3): > 100000 nM | EC50 (Human Full Length PARG): 40 nM

Cc1cc(Cc2nc3ccc(S(=O)(=O)NC4(C)CC4)cc3n2-c2nnc(C)s2)on1 [Example 118]
IC50 [1]: > 150000 nM | IC50 (Human Full Length ARH3): > 150000 nM | EC50 (Human Full Length PARG): 671 nM

Cc1nnc(-n2cnc3ccc(S(=O)(=O)NC4(C)CC4)cc32)s1 [Example 119]
IC50 [1]: > 150000 nM | IC50 (Human Full Length ARH3): > 150000 nM | EC50 (Human Full Length PARG): 1030 nM

Cc1nnc(-n2cc(Cc3sc(C)nc3C)c3ccc(S(=O)(=O)NC4(C)CC4)cc32)s1 [Example 129, 3-[(2,4-Dimethylthiazol-5-yl)methyl]-N-(1-methylcyclopropyl)-1-(5-methyl-1,3,4-thiadiazol-2-yl)indole-6-sulfonamide]
IC50 (PARG in HeLa cell line): 251 nM | IC50 [1]: > 150000 nM | IC50 (Human Full Length ARH3): > 16700 nM | EC50 (Human Full Length PARG): 371 nM

CC1(NS(=O)(=O)c2ccc3c(C(=O)C4CC4)cn(-c4nnc(C(F)F)s4)c3c2)CC1 [Example 145, 3-(Cyclopropanecarbonyl)-1-[5-(difluoromethyl)-1,3,4-thiadiazol-2-yl]-N-(1-methylcyclopropyl)indole-6-sulfonamide]
IC50 (PARG in HeLa cell line): 46.6 nM | IC50 [1]: > 150000 nM | IC50 (Human Full Length ARH3): > 150000 nM | EC50 (Human Full Length PARG): 134 nM

Cc1nnc(-n2nc(Cc3ccc(F)cc3)c3ccc(S(=O)(=O)NC4(C)CC4)cc32)s1 [Example 146, 3-[(4-Fluorophenyl)methyl]-N-(1-methylcyclopropyl)-1-(5-methyl-1,3,4-thiadiazol-2-yl)indazole-6-sulfonamide]
IC50 [1]: > 150000 nM | IC50 (Human Full Length ARH3): > 16700 nM | EC50 (Human Full Length PARG): 1190 nM

Cn1c(=O)n(-c2nnc(C(F)F)s2)c2cc(S(=O)(=O)NC3(CF)CC3)c(F)cc21 [Example 174, 3-[5-(difluoromethyl)-1,3,4-thiadiazol-2-yl]-6-fluoro-N-[1-(fluoromethyl)cyclopropyl]-1-methyl-2-oxo-benzimidazole-5-sulfonamide]
IC50 (PARG in HeLa cell line): 41 nM | IC50 [1]: > 150000 nM | IC50 (Human Full Length ARH3): > 50000 nM | EC50 (Human Full Length PARG): 91 nM

CCn1c(=O)n(-c2nnc(C(F)F)o2)c2cc(S(=O)(=O)NC3(CF)CC3)c(F)cc21 [Example 200, 3-[5-(Difluoromethyl)-1,3,4-oxadiazol-2-yl]-1-ethyl-6-fluoro-N-[1-(fluoromethyl)cyclopropyl]-2-oxo-benzimidazole-5-sulfonamide]
IC50 (PARG in HeLa cell line): 126 nM | IC50 (Human Full Length ARH3): > 150000 nM | EC50 (Human Full Length PARG): 112 nM

CCn1c(=O)n(-c2nnc(C(F)F)s2)c2cc(S(=O)(=O)NC3(CF)CC3)c(F)cc21 [Example 208, 3-[5-(Difluoromethyl)-1,3,4-thiadiazol-2-yl]-1-ethyl-6-fluoro-N-[1-(fluoromethyl)cyclopropyl]-2-oxo-benzimidazole-5-sulfonamide]
IC50 (PARG in HeLa cell line): 29 nM | IC50 [1]: > 150000 nM | IC50 (Human Full Length ARH3): > 150000 nM | EC50 (Human Full Length PARG): 54 nM

CC1(NS(=O)(=O)c2cc3c(cc2F)n(CCF)c(=O)n3-c2nnc(C(F)F)o2)CC1 [Example 211, 3-[5-(Difluoromethyl)-1,3,4-oxadiazol-2-yl]-6-fluoro-1-(2-fluoroethyl)-N-(1-methylcyclopropyl)-2-oxo-benzimidazole-5-sulfonamide]
IC50 (PARG in HeLa cell line): 135 nM | IC50 (Human Full Length ARH3): > 150000 nM | EC50 (Human Full Length PARG): 401 nM

O=c1n(CCF)c2cc(F)c(S(=O)(=O)NC3(CF)CC3)cc2n1-c1nnc(C(F)F)o1 [Example 212, 3-[5-(Difluoromethyl)-1,3,4-oxadiazol-2-yl]-6-fluoro-1-(2-fluoroethyl)-N-[1-(fluoromethyl)cyclopropyl]-2-oxo-benzimidazole-5-sulfonamide]
IC50 (PARG in HeLa cell line): 110 nM | IC50 (Human Full Length ARH3): > 150000 nM | EC50 (Human Full Length PARG): 129 nM

C#CCn1c(=O)n(-c2nnc(C(F)F)s2)c2cc(S(=O)(=O)NC3(CF)CC3)c(F)cc21 [Example 213, 3-[5-(Difluoromethyl)-1,3,4-thiadiazol-2-yl]-6-fluoro-N-[1-(fluoromethyl)cyclopropyl]-2-oxo-1-prop-2-ynyl-benzimidazole-5-sulfonamide]
IC50 (PARG in HeLa cell line): 16 nM | IC50 (Human Full Length ARH3): > 150000 nM | EC50 (Human Full Length PARG): 29 nM

O=c1n(CCF)c2cc(F)c(S(=O)(=O)NC3(CF)CC3)cc2n1-c1nnc(C(F)F)s1 [Example 216, 3-[5-(Difluoromethyl)-1,3,4-thiadiazol-2-yl]-6-fluoro-1-(2-fluoroethyl)-N-[1-(fluoromethyl)cyclopropyl]-2-oxo-benzimidazole-5-sulfonamide]
IC50 (PARG in HeLa cell line): 33 nM | IC50 (Human Full Length ARH3): > 150000 nM | EC50 (Human Full Length PARG): 51 nM
